What was measured:
scavenger receptor A1 = molecular target: T1, scavenger receptor A1 (Mus musculus, UniProt P30204); assay: Competitive inhibition of polymer-488 cell uptake by poly I / poly C in Raw 264.7 macrophages; assay type: cell-based; conditions: for inhibition of scavenger receptor interaction of polymer-488 (fluorescence): various concentrations of polymer-488 with inhibitor, Raw 264.7 macrophages (FIG. 3); for inhibition of polymer-488 fluorescence: various inhibitor concentrations, polymer-488 concentration constant, 37° C. 3 hours (FIG. 4)
T1 construct: endogenous in cells; host or cells: Raw 264.7 macrophages
T1 sequence (P30204 1-458): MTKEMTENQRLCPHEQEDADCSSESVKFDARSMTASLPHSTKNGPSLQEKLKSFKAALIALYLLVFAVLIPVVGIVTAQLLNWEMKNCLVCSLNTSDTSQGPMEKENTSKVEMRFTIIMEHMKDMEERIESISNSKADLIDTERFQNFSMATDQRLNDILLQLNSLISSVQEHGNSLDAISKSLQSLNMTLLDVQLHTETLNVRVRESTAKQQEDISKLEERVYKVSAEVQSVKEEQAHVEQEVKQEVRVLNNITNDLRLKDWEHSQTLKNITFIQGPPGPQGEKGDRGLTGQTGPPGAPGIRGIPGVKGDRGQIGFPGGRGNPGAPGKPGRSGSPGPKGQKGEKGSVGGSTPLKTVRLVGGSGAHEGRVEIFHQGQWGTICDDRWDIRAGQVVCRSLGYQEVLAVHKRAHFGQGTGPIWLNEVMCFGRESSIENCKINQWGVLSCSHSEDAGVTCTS
Method: The fluorescently labelled poly(L-lysine succinylated) was also tested for cell uptake in a macrophage cell line Raw 264.7 in the presence of competitive inhibitors and relevant controls. […] At higher concentrations of polymer-488, fluorescence is seen due to competing off the poly I.
In a follow up study, cells were treated with various concentrations of either poly I or poly C while polymer-488 concentration remained constant. In this study, Raw 264.7 cells were incubated overnight at 400,000 cells/mL. The cells were treated with various concentrations of polymer-488 and either 200 μg/mL poly I, 200 μg/mL poly C, or no inhibitor. The cells were incubated at 37° C. for 3 hours, washed 3 times with media, and fluorescence measured.

in vivo = conditions: male, Sprague-Dawley, rat, iv, 10 mg/kg
[1] = male, Sprague-Dawley, rat, in vivo, iv, 10 mg/kg

## polyinosinic acid [poly I]
Scavenger receptor A1
  inhibition of scavenger receptor interaction of polymer-488 (fluorescence): inhibition of scavenger receptor interaction
  inhibition of polymer-488 fluorescence: dose-dependent inhibition

## polycytidylic acid [poly C]
Scavenger receptor A1
  inhibition of scavenger receptor interaction of polymer-488 (fluorescence): not with poly C
  inhibition of polymer-488 fluorescence: virtually no inhibition of fluorescence

## Nc1nc(=O)n([C@@H]2CS[C@H](CO)O2)cc1F [Emtricitabine, emtricitabine]
In vivo
  Tmax: 4 h
In vivo; Cmax
  Cmax: 86.7 ng/g
[1]
  Tlast: 96 h

Reference: patent publication US20200316213A1, “MACROMOLECULAR PLATFORM FOR TARGETING SCAVENGER RECEPTOR A1” (THE UNITED STATES OF AMERICA, AS REPRESENTED BY THE …, priority 2017, published 2020)
